Experimental data: ChEMBL document CHEMBL1201862, “PubChem BioAssay data set” (2004)
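Each compound was tested at five concentrations against cells in 96-well plates for 48 hours. Here, GI50 denotes the concentration required for 50% inhibition of growth.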 Activity calls are given as the source filed them. Rule as the data show it: active = GI50 up to about 1.1 µM and inactive = higher.

Columns and labels:
Experiment in all cases: DTP human tumour cell line panel, 48 h
[1] = tested on: TK-10
[2] = tested on: A549
[3] = tested on: EKVX
[4] = tested on: MOLT-4
[5] = tested on: HT-29
[6] = tested on: ACHN
[7] = tested on: NCI-H460
[8] = tested on: OVCAR-5
[9] = tested on: SF-268
[10] = tested on: HL-60
[11] = tested on: OVCAR-4
[12] = tested on: SK-MEL-28
[13] = tested on: MDA-MB-435
[14] = tested on: K562
[15] = tested on: CAKI-1
[16] = tested on: NCI/ADR-RES
[17] = tested on: T47D
[18] = tested on: HOP-62
[19] = tested on: M14
[20] = tested on: UACC-257
[21] = tested on: IGROV-1
[22] = tested on: RPMI-8226
[23] = tested on: PC-3
[24] = tested on: MDA-N
[25] = tested on: MDA-MB-231
[26] = tested on: SF-295
[27] = tested on: SNB-75
[28] = tested on: A498
[29] = tested on: BT-549
[30] = tested on: HCT-116
[31] = tested on: NCI-H23
[32] = tested on: HCT-15
[33] = tested on: UO-31
[34] = tested on: MCF7
[35] = tested on: SK-MEL-5
[36] = tested on: OVCAR-8
[37] = tested on: HCC 2998
[38] = tested on: HOP-92
[39] = tested on: LOX IMVI
[40] = tested on: SK-OV-3
[41] = tested on: U-251
[42] = tested on: OVCAR-3
[43] = tested on: NCI-H522
[44] = tested on: Malme-3M
[45] = tested on: SR
[46] = tested on: SN12C
[47] = tested on: DU-145
[48] = tested on: 786-0
[49] = tested on: COLO 205
[50] = tested on: SF-539
[51] = tested on: SW-620
[52] = tested on: Hs-578T
[53] = tested on: SNB-19
[54] = tested on: UACC-62
[55] = tested on: CCRF-CEM
[56] = tested on: RXF 393
[57] = tested on: KM12
[58] = tested on: SK-MEL-2
[59] = tested on: NCI-H226

Structure (SMILES): Clc1cc(OC23CC4CC(CC(C4)C2)C3)nc(Cl)n1
- GI50 [1]: > 100 µM (inactive)
- GI50 [2]: > 100 µM (inactive)
- GI50 [3]: 37.5 µM (inactive)
- GI50 [4]: 34 µM (inactive)
- GI50 [5]: 28.9 µM (inactive)
- GI50 [6]: > 100 µM (inactive)
- GI50 [7]: 39.6 µM (inactive)
- GI50 [8]: > 100 µM (inactive)
- GI50 [9]: 69.8 µM (inactive)
- GI50 [10]: 10 µM (inactive)
- GI50 [11]: 40.9 µM (inactive)
- GI50 [12]: 43.2 µM (inactive)
- GI50 [13]: 39.2 µM (inactive)
- GI50 [14]: 21.9 µM (inactive)
- GI50 [15]: 1.94 µM (inactive)
- GI50 [16]: > 100 µM (inactive)
- GI50 [17]: > 100 µM (inactive)
- GI50 [18]: > 100 µM (inactive)
- GI50 [19]: 29.9 µM (inactive)
- GI50 [20]: 39 µM (inactive)
- GI50 [21]: 27.2 µM (inactive)
- GI50 [22]: 37.9 µM (inactive)
- GI50 [23]: > 100 µM (inactive)
- GI50 [24]: 50.6 µM (inactive)
- GI50 [25]: 33.7 µM (inactive)
- GI50 [26]: > 100 µM (inactive)
- GI50 [27]: 64.6 µM (inactive)
- GI50 [28]: > 100 µM (inactive)
- GI50 [29]: > 100 µM (inactive)
- GI50 [30]: 46.3 µM (inactive)
- GI50 [31]: 58.7 µM (inactive)
- GI50 [32]: 29.6 µM
- GI50 [33]: 25.4 µM (inactive)
- GI50 [34]: 55.7 µM (inactive)
- GI50 [35]: 38.8 µM (inactive)
- GI50 [36]: > 100 µM (inactive)
- GI50 [37]: 12.9 µM (inactive)
- GI50 [38]: 1.7 µM (inactive)
- GI50 [39]: 17 µM (inactive)
- GI50 [40]: > 100 µM (inactive)
- GI50 [41]: 55.8 µM (inactive)
- GI50 [42]: 39.2 µM (inactive)
- GI50 [43]: 90.2 µM (inactive)
- GI50 [44]: > 100 µM (inactive)
- GI50 [45]: 19.8 µM (inactive)
- GI50 [46]: > 100 µM (inactive)
- GI50 [47]: 55.7 µM (inactive)
- GI50 [48]: > 100 µM (inactive)
- GI50 [49]: 56.6 µM (inactive)
- GI50 [50]: > 100 µM (inactive)
- GI50 [51]: 41.2 µM (inactive)
- GI50 [52]: 22.8 µM (inactive)
- GI50 [53]: > 100 µM (inactive)
- GI50 [54]: 52.4 µM (inactive)
- GI50 [55]: 23.6 µM (inactive)
- GI50 [56]: 27.8 µM (inactive)
- GI50 [57]: > 100 µM (inactive)
- GI50 [58]: 29.6 µM (inactive)

Structure (SMILES): CCCCc1ccc(Nc2nc(Cl)c3ncn(COCCOC(C)=O)c3n2)cc1
- GI50 [59]: 21.5 µM (inactive)
- GI50 [1]: 20.3 µM (inactive)
- GI50 [2]: 20.8 µM (inactive)
- GI50 [3]: 6.19 µM (inactive)
- GI50 [4]: 21.2 µM (inactive)
- GI50 [5]: 17.3 µM (inactive)
- GI50 [6]: 17.5 µM (inactive)
- GI50 [7]: 17.6 µM (inactive)
- GI50 [8]: 17.9 µM (inactive)
- GI50 [9]: 19.4 µM (inactive)
- GI50 [10]: 20.9 µM (inactive)
- GI50 [11]: 33.7 µM (inactive)
- GI50 [13]: 18.5 µM (inactive)
- GI50 [14]: 6.04 µM (inactive)
- GI50 [15]: 1.89 µM (inactive)
- GI50 [16]: 20 µM (inactive)
- GI50 [17]: 22.8 µM (inactive)
- GI50 [18]: 17.1 µM (inactive)
- GI50 [19]: 18 µM (inactive)
- GI50 [20]: 19.8 µM (inactive)
- GI50 [21]: 15.7 µM (inactive)
- GI50 [22]: 18.2 µM (inactive)
- GI50 [23]: 16.8 µM (inactive)
- GI50 [24]: 18.8 µM (inactive)
- GI50 [25]: 15.3 µM (inactive)
- GI50 [26]: 17.4 µM (inactive)
- GI50 [27]: 24.5 µM (inactive)
- GI50 [28]: 25.5 µM (inactive)
- GI50 [29]: 16.5 µM (inactive)
- GI50 [30]: 17.6 µM (inactive)
- GI50 [31]: 16.2 µM (inactive)
- GI50 [32]: 16.7 µM
- GI50 [33]: 16 µM (inactive)
- GI50 [34]: 27.4 µM (inactive)
- GI50 [35]: 16.7 µM (inactive)
- GI50 [36]: 18.5 µM (inactive)
- GI50 [37]: 11.9 µM (inactive)
- GI50 [38]: 2.06 µM (inactive)
- GI50 [39]: 14.8 µM (inactive)
- GI50 [40]: 19.6 µM (inactive)
- GI50 [41]: 18.3 µM (inactive)
- GI50 [42]: 20.2 µM (inactive)
- GI50 [43]: 13.6 µM (inactive)
- GI50 [44]: 17.3 µM (inactive)
- GI50 [45]: 21.2 µM (inactive)
- GI50 [46]: 21.8 µM (inactive)
- GI50 [47]: 16 µM (inactive)
- GI50 [48]: 16 µM (inactive)
- GI50 [49]: 23.5 µM (inactive)
- GI50 [50]: 19.5 µM (inactive)
- GI50 [51]: 21.1 µM (inactive)
- GI50 [52]: 21.7 µM (inactive)
- GI50 [53]: 19.9 µM (inactive)
- GI50 [54]: 17.3 µM (inactive)
- GI50 [55]: 35.6 µM (inactive)
- GI50 [56]: 16.9 µM (inactive)
- GI50 [57]: 20.4 µM (inactive)
- GI50 [58]: 14.8 µM (inactive)

Structure (SMILES): CN(C)CCCNC(=O)c1c(O)c2ccccc2[nH]c1=O
- GI50 [59]: > 100 µM (inactive)
- GI50 [1]: > 100 µM (inactive)
- GI50 [2]: > 100 µM (inactive)
- GI50 [3]: > 100 µM (inactive)
- GI50 [4]: > 100 µM (inactive)
- GI50 [5]: > 100 µM (inactive)
- GI50 [6]: > 100 µM (inactive)
- GI50 [7]: > 100 µM (inactive)
- GI50 [8]: > 100 µM (inactive)
- GI50 [9]: 83.2 µM (inactive)
- GI50 [10]: > 100 µM (inactive)
- GI50 [11]: > 100 µM (inactive)
- GI50 [12]: > 100 µM (inactive)
- GI50 [13]: > 100 µM (inactive)
- GI50 [14]: > 100 µM (inactive)
- GI50 [15]: 47.2 µM (inactive)
- GI50 [16]: 88.5 µM (inactive)
- GI50 [17]: > 100 µM (inactive)
- GI50 [18]: > 100 µM (inactive)
- GI50 [20]: > 100 µM (inactive)
- GI50 [21]: 42 µM (inactive)
- GI50 [22]: > 100 µM (inactive)
- GI50 [23]: > 100 µM (inactive)
- GI50 [24]: > 100 µM (inactive)
- GI50 [25]: > 100 µM (inactive)
- GI50 [26]: 22.9 µM (inactive)
- GI50 [27]: > 100 µM (inactive)
- GI50 [28]: > 100 µM (inactive)
- GI50 [29]: > 100 µM (inactive)
- GI50 [30]: > 100 µM (inactive)
- GI50 [31]: > 100 µM (inactive)
- GI50 [32]: > 100 µM
- GI50 [33]: 14.5 µM (inactive)
- GI50 [34]: > 100 µM (inactive)
- GI50 [35]: > 100 µM (inactive)
- GI50 [36]: > 100 µM (inactive)
- GI50 [37]: > 100 µM (inactive)
- GI50 [38]: 38.4 µM (inactive)
- GI50 [39]: > 100 µM (inactive)
- GI50 [40]: > 100 µM (inactive)
- GI50 [42]: > 100 µM (inactive)
- GI50 [43]: > 100 µM (inactive)
- GI50 [44]: > 100 µM (inactive)
- GI50 [45]: > 100 µM (inactive)
- GI50 [46]: > 100 µM (inactive)
- GI50 [47]: > 100 µM (inactive)
- GI50 [48]: > 100 µM (inactive)
- GI50 [49]: 41.1 µM (inactive)
- GI50 [50]: > 100 µM (inactive)
- GI50 [51]: > 100 µM (inactive)
- GI50 [52]: > 100 µM (inactive)
- GI50 [54]: > 100 µM (inactive)
- GI50 [55]: > 100 µM (inactive)
- GI50 [56]: 95.7 µM (inactive)
- GI50 [57]: > 100 µM (inactive)
- GI50 [58]: > 100 µM (inactive)
